Assay results taken from US12534469B2 (CHILDREN'S HOSPITAL MEDICAL CENTER, priority 2020, dated 2026).
Changes are numbered by the printed parent chain.

Experiments:
FLT3 R834Q = target: T1, FLT3 R834Q (Homo sapiens, UniProt P36888, R834Q); assay: DiscoverX KINOMEscan competition binding assay, FLT3 R834Q
T1 construct: purchased DiscoverX (KINOMEscan); host or cells: E. coli (T7 phage) or HEK-293
T1 sequence (P36888 27-993 R834Q): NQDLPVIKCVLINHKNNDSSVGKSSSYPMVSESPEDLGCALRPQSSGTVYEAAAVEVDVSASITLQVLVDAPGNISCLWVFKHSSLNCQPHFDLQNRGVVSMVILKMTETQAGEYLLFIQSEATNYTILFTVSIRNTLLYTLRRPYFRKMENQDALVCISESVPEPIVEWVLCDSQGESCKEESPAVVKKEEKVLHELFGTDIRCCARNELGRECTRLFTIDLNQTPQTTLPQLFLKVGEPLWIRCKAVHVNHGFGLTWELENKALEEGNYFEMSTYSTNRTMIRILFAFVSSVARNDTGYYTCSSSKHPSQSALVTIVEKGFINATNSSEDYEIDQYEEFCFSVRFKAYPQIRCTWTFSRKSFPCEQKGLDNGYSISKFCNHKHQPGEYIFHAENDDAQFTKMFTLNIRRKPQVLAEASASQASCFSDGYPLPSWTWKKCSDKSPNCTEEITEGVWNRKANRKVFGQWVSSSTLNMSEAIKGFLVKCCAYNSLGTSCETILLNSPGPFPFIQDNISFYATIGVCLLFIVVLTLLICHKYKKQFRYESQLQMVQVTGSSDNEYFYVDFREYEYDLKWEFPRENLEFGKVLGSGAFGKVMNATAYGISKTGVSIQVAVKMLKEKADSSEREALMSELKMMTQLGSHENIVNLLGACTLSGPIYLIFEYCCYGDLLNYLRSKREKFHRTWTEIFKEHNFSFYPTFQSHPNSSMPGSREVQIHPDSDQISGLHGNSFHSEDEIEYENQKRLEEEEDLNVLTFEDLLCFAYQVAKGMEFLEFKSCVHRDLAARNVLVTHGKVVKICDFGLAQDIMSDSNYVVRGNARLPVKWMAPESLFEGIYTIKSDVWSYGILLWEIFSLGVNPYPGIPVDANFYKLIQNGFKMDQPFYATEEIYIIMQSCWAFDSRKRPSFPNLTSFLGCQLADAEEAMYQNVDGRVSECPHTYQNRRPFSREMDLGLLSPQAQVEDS
Text: (§1) Kinase binding data were obtained for various exemplary compounds prepared according to Examples 1-25 using the DiscoverX KINOMEscan® active site-directed competition binding site-directed assay protocol described below. […] As a result, the data report thermodynamic interaction affinities (Kd values), rather than IC50 values that are dependent on ATP concentrations. The assay uses a DNA-tagged version of the protein kinase, and an immobilized ligand bound to a solid support. Compounds that directly or indirectly prevent kinase binding to the immobilized ligand reduce the amount of kinase captured on the solid support, which is detected using an ultra-sensitive qPCR method. Affinity constants reported from the assay have been reported to be independent of the immobilized ligand used that is coupled to the solid support (See supplemental information in Fabian, M. A. et. al., (2005) Nat. Biotechnol. 23, 329-336; Wodicka, L. M. et. al., (2010) Chem. Biol. 17, 1241-1249.)
(§2) Kinase-tagged T7 phage strains were prepared in an E. coli host derived from the BL21 strain. E. coli were grown to log-phase and infected with T7 phage and incubated with shaking at 32° C. until lysis. The lysates were centrifuged and filtered to remove cell debris. The remaining kinases were produced in HEK-293 cells and subsequently tagged with DNA for qPCR detection. […] The liganded beads were blocked with excess biotin and washed with blocking buffer (SeaBlock (Pierce), 1% BSA, 0.05% Tween 20, 1 mM DTT) to remove unbound ligand and to reduce non-specific binding. […] Test compounds were prepared as 111× stocks in 100% DMSO. Kds were determined using an 11-point 3-fold compound dilution series with three DMSO control points. […] The compounds were then diluted directly into the assays such that the final concentration of DMSO was 0.9%. All reactions were performed in polypropylene 384-well plates. Each was a final volume of 0.02 mL. […] The kinase concentration in the eluates was measured by qPCR.
(§3) Binding constants (Kds) were calculated with a standard dose-response curve using the Hill equation. […]

FLT3 D835V = target: T2, FLT3 D835V (Homo sapiens, UniProt P36888, D835V); assay: DiscoverX KINOMEscan competition binding assay, FLT3 D835V
T2 construct: purchased DiscoverX (KINOMEscan); host or cells: E. coli (T7 phage) or HEK-293
T2 sequence (P36888 27-993 D835V): T1 sequence (P36888 27-993 R834Q) with Q808R, D809V
Text: as §1, §2, §3

Row | Kd (FLT3 R834Q) [nM] | Kd (FLT3 D835V) [nM] | Compound
1 | 0.61 | 0.11 | COc1cc2ncc(-c3cccc(N[C@H]4CNCC[C@@H]4F)n3)n2nc1C1CC1 [Compound 102, 6-(6-cyclopropyl-7-methoxyimidazo[1,2-b]pyridazin-3-yl)-N-((3S,4S)-4-fluoropiperidin-3-yl)pyridin-2-amine]
2 | 1.6 | 0.12 | COc1cc2ncc(-c3cccc(N[C@H]4CNC[C@@H]4F)n3)n2nc1C1CC1 [Compound 96, 6-(6-cyclopropyl-7-methoxyimidazo[1,2-b]pyridazin-3-yl)-N-((3S,4S)-4-fluoropyrrolidin-3-yl)pyridin-2-amine]
3 | 0.8 | 0.067 | COc1cc2ncc(-c3cccc(N[C@@H]4CCNC4)n3)n2nc1C1CC1 [Compound 97, (R)-6-(6-cyclopropyl-7-methoxyimidazo[1,2-b]pyridazin-3-yl)-N-(pyrrolidin-3-yl)pyridin-2-amine]
